According to article PMC7614683, “A small molecule PI3Kα activator for cardioprotection and neuroregeneration” (Nature, 2023):

Legend:
Assay in all cases: SelectScreen LanthaScreen Binding
Conditions in all cases: 1000 nM
[1] = target: CDK2/cyclin E1 (Homo sapiens, UniProt P24941)
Protocol: (§1) 133 protein kinases and 7 lipid kinases were counterscreened, with 1938 used at 1 μM, using the Adapta, Lantha and Z-LYTE assays (SelectScreen Kinase Profiling Service; Thermofisher – experimental details of these assays can be found here: https://www.thermofisher.com/uk/en/home/industrial/pharma-biopharma/drug-discovery-development/target-and-lead-identification-and-validation/kinasebiology/kinase-activity-assays.html. The tree represention in KinMap[59] generated courtesy of Cell Signaling Technology, Inc. (www.cellsignal.com). mTORC1 (mTOR/RAPTOR/LST8) protein complex and ATM kinase and substrates were produced as previously described[57],[60]. Screening of 1938 was conducted using SuperSep Phos-Tag 50 μmol/l 100 x 100 x 6.6 mm 17-well (192-18001/199-18011) gels. For ATM assays, 100 nM ATM was incubated for 30 min at 30°C with 5 μM GST-p53 and 1 mM ATP, in the absence or presence of 200 μM 1938 in ATM Kinase Buffer (50 mM HEPES pH 7.5, 100 mM NaCl, 10% glycerol, 2 mM […], 5 mM MgCl2). As a positive control for ATM activation, the same reaction was carried out with 100 nM ATM/5 μM GST-p53/1 mM ATP in the presence of 100 nM Mre11-Rad50-Nbs1 (MRN) complex, a known activator of ATM[61]. For mTORC1 assays, 50 nM mTORC1 complex (mTOR/LST8/RAPTOR) was incubated for 3 h at 30°C with 15 μM 4E-BP1, 10 mM MgCl2 and 250 μM ATP, in the absence or presence of 200 μM 1938. As a ‘positive’ control, a higher concentration (150 nM) of mTORC1 complex (mTOR/LST8/RAPTOR) was incubated for 3 h at 30°C with 15 μM 4E-BP1, 10 mM MgCl2 and 250 μM ATP. Kinase reactions were quenched by addition of SDS-PAGE Loading Buffer (as per manufacturer’s instructions) and freezing at -20°C before being run on the Phos-tag gels at 150 V for 90 min. Gels were then stained using InstantBlue™ Coomassie, and quantified using BioRad Image Lab Software. Kinase assays were carried out in triplicate.

[2] = target: TNIK (Homo sapiens, UniProt Q9UKE5)
Protocol: as §1

[3] = target: T1, MAP4K3 (GLK) (Homo sapiens, UniProt Q8IVH8)
T1 sequence (Q8IVH8 1-894): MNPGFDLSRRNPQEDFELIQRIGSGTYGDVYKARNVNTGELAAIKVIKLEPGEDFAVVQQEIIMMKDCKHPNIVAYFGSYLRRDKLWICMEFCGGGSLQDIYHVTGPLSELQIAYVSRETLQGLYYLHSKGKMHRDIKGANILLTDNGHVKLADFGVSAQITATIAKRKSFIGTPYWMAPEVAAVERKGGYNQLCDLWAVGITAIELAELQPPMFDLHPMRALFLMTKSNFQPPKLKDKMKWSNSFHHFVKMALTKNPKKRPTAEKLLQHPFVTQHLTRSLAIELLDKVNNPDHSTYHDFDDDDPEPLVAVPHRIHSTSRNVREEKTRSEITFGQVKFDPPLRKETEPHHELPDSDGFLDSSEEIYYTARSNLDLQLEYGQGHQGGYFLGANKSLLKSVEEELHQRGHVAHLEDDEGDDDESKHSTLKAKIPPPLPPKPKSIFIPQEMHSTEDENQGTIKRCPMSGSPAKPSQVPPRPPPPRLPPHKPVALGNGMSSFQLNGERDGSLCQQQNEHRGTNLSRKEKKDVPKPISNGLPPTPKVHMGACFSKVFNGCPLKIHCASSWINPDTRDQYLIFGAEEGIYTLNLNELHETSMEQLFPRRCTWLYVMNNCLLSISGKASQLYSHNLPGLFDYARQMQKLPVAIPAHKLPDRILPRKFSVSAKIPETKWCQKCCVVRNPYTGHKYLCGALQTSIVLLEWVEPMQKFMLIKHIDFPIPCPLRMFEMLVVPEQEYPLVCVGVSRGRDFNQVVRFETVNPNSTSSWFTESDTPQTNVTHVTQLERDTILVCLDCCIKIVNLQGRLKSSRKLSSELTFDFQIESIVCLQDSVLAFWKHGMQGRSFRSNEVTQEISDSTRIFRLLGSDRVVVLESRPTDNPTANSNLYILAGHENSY
Protocol: as §1

[4] = target: T2, STK17A (DRAK1) (Homo sapiens, UniProt Q9UEE5)
T2 sequence (Q9UEE5 1-414): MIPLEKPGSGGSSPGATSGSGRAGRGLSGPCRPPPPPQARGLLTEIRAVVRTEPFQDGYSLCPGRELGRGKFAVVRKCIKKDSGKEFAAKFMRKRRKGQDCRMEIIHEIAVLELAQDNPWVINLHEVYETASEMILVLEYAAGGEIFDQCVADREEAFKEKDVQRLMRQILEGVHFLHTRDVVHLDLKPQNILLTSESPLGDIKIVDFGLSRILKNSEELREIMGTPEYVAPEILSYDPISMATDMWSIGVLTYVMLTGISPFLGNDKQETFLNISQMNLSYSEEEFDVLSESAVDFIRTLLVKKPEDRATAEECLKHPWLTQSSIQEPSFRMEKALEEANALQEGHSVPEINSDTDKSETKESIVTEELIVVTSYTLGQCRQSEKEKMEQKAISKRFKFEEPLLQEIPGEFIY
Protocol: as §1

TNIK, sequence (Q9UKE5 whole entry): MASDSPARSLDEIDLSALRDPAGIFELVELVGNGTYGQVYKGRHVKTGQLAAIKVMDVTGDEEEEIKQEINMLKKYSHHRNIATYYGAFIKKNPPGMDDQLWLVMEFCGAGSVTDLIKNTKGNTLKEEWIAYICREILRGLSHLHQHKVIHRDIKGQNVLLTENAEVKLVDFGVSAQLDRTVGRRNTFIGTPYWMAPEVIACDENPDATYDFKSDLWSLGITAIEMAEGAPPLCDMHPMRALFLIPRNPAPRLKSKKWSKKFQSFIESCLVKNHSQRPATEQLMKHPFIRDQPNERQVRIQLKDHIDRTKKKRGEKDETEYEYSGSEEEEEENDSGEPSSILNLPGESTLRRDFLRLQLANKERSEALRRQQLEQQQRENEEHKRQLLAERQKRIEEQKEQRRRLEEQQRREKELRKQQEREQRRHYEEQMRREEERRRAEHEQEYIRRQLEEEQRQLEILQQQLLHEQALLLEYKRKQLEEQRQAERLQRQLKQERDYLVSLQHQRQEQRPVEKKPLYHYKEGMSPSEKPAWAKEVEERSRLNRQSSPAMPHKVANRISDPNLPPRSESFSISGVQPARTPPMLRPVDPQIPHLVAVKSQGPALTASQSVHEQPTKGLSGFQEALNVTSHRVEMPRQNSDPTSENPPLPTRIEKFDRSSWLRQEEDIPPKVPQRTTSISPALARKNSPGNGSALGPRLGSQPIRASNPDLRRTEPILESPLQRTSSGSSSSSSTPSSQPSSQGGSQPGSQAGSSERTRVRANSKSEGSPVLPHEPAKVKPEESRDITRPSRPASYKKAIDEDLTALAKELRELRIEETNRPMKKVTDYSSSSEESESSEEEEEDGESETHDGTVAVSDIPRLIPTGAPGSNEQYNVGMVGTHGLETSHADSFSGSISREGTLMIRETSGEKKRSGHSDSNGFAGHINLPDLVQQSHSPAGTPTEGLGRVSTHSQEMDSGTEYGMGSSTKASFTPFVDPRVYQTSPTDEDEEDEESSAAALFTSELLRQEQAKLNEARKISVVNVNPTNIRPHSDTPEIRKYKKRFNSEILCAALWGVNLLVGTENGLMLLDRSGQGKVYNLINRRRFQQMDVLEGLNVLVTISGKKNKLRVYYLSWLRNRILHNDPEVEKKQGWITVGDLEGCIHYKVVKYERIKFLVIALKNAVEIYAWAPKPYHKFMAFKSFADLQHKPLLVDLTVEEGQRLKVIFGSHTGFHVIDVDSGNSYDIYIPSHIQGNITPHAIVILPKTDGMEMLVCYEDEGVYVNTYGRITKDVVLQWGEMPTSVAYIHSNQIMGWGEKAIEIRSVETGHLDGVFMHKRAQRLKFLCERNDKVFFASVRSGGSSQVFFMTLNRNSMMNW

## CCN1CCN(c2ccc(Nc3cc(Nc4cccc5c4N(C(C)=O)CC5)ccn3)cc2)CC1 [Compound 1938]
[1]
  % Displacement Point 1: 3%
  % Displacement Point 2: -14%
  % Displacement mean: -5.56%
[2]
  % Displacement Point 1: 23%
  % Displacement Point 2: 25%
  % Displacement mean: 24%
[3]
  % Displacement Point 1: -1.29%
  % Displacement Point 2: 0.495%
  % Displacement mean: -0.396%
[4]
  % Displacement Point 1: 2.26%
  % Displacement Point 2: 10%
  % Displacement mean: 6.32%
